18 compounds from patent publication US11866450B2, “Modulators of Cystic Fibrosis Transmembrane Conductance regulator, pharmaceutical compositions, methods of treatment, and process for making the modulators” (priority 2018, dated 2024) can be followed below.

For this experiment, the target named is CFTR-mediated chloride transport (Homo sapiens, UniProt P13569). It is filed as cell-based. The following applies: enteroid cells incubated with test compound 18-24 hours, acute 10 μM forskolin and 300 nM Compound III; for Max. Activity: % of chloride transport with 3 μM Compound A, 3 μM Compound II and 300 nM acute Compound III triple combination control. The gist of the method:
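Human intestinal enteroid cells incubated with compound 18–24 h at 37° C., then membrane potential dye (FLIPR) read 15 min after chloride-free stimulation with 10 μM forskolin, 100 μM IBMX and 300 nM Compound III. AUC expressed as % of triple-combination control (3 μM Compound A, 3 μM Compound II, 300 nM Compound III).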

CFTR-mediated chloride transport, sequence (P13569 whole entry, looked up): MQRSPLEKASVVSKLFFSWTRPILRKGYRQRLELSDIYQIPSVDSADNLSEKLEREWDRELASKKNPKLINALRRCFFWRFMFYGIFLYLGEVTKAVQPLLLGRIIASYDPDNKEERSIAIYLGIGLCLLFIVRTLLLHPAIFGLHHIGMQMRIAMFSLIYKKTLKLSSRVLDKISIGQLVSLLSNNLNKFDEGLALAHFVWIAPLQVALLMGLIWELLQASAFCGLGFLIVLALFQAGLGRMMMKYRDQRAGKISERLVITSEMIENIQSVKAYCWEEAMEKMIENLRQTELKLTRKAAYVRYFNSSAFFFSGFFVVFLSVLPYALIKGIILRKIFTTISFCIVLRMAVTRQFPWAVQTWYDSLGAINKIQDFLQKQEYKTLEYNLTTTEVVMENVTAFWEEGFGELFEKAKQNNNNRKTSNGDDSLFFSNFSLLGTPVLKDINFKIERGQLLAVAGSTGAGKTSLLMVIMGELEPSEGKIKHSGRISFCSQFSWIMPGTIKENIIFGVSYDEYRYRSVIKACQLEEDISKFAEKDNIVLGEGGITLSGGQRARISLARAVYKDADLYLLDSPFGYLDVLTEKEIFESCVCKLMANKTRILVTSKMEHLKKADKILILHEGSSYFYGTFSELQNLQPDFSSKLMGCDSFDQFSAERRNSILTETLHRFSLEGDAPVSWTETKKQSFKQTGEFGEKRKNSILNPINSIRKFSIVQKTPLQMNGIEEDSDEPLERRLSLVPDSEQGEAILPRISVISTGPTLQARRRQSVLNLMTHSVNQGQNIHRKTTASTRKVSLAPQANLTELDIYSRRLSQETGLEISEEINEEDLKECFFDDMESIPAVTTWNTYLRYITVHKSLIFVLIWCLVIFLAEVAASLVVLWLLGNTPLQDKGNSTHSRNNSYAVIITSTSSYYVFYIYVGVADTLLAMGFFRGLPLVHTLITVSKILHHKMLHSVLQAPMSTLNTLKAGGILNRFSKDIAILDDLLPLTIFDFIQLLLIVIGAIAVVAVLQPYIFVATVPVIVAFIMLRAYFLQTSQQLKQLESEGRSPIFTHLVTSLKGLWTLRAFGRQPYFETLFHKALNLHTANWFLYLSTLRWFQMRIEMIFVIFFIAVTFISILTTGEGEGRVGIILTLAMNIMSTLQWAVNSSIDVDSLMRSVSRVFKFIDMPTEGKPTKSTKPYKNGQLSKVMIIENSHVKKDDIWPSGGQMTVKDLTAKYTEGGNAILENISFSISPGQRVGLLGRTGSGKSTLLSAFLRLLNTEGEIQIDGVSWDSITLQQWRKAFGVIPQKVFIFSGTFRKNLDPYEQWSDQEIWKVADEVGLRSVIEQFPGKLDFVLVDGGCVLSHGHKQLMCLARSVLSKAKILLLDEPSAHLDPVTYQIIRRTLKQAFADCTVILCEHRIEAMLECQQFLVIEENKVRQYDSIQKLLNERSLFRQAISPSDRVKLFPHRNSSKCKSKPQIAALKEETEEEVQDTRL

Usually EC50 stands for the midpoint of the concentration-response curve. Take `CN1CCC[C@H]2CN(c3nc(-n4ccc(OCCC(C5CC5)C5CC5)n4)ccc3C(=O)NS(=O)(=O)c3cccc1n3)C(C)(C)C2` (single isomer, unassigned) [Compound 203, 8-[3-(3,3-Dicyclopropylpropoxy)-1H-pyrazol-1-yl]-12,12,18-trimethyl-2λ^6-thia-3,9,11,18,23-pentaazatetracyclo[17.3.1.111,14.05,10]tetracosa-1(22),5,7,9,19(23),20-hexaene-2,2,4-trione]: the concentration giving a half-maximal response (EC50) is less than 1000 nM and the “Max. Activity” value is given as “+++ (+++ is >60%)”.

For the compound `CC1(C)C[C@H]2CCCCOc3ccc(cc3)S(=O)(=O)NC(=O)c3ccc(-n4ccc(OCCC5(C(F)(F)F)CC5)n4)nc3N1C2` (single isomer, unassigned) [Compound 96, 12,12-dimethyl-8-(3-{2-[1-(trifluoromethyl)cyclopropyl]ethoxy}-1H-pyrazol-1-yl)-19-oxa-2λ^6-thia-3,9,11-triazatetracyclo[18.2.2.111,14.05,10]pentacosa-1(22),5,7,9,20,23-hexaene-2,2,4-trione], the EC50 was more than 3000 nM and the “Max. Activity” value is given as “+ (+ is <30%)”.

As for `CC(C)(C)CCC[C@H]1CCN(c2ccc3c(n2)N2C[C@@H](CCCNc4cccc(n4)S(=O)(=O)NC3=O)CC2(C)C)C1=O` (single isomer, unassigned) [Compound 146], the EC50 is less than 1000 nM and the “Max. Activity” value is listed as “+++ (+++ is >60%)”.

On to `CC1(C)C[C@H]2CCCn3ccc(n3)S(=O)(=O)NC(=O)c3ccc(N4CC[C@H](CCCC5(C(F)(F)F)CC5)C4=O)nc3N1C2` (single isomer, unassigned) [Compound 181, 20,20-Dimethyl-4-(2-oxo-3-{3-[1-(trifluoromethyl)cyclopropyl]propyl}pyrrolidin-1-yl)-10λ^6-thia-1,3,9,14,22-pentaazatetracyclo[16.2.1.111,14.02,7]docosa-2,4,6,11(22),12-pentaene-8,10,10-trione], for which the EC50 lay in the range of 1000 to 3000 nM and the “Max. Activity” value was “++ (++ is 30-60%)”.

Consider `CC1(C)C[C@H]2CCCNc3ccc(cn3)S(=O)(=O)NC(=O)c3ccc(-n4ccc(OCCC5(C(F)(F)F)CC5)n4)nc3N1C2` (single isomer, unassigned) [Compound 73, 12,12-dimethyl-8-(3-{2-[1-(trifluoromethyl)cyclopropyl]ethoxy}-1H-pyrazol-1-yl)-2λ^6-thia-3,9,11,18,20-pentaazatetracyclo[17.2.2.111,14.05,10]tetracosa-1(22),5,7,9,19(23),20-hexaene-2,2,4-trione], for which the EC50 is less than 1000 nM and the “Max. Activity” value is given as “+++ (+++ is >60%)”.

Take `CC1(C)C[C@H]2CCNc3cccc(n3)S(=O)(=O)NC(=O)c3ccc(-n4ccc(OCC5(C(F)(F)F)CC5)n4)nc3N1C2` (single isomer, unassigned) [Compound 5, 7,7-dimethyl-11-(3-{[1-(trifluoromethyl)cyclopropyl]methoxy}-1H-pyrazol-1-yl)-17λ^6-thia-2,8,10,16,22-pentaazatetracyclo[16.3.1.1(5,8).0(9,14)]tricosa-1(21),9(14),10,12,18(22),19-hexaene-15,17,17-trione]: the 50% effective concentration (EC50) is less than 1000 nM and the “Max. Activity” value is “+++ (+++ is >60%)”.

Take `CC1(C)C[C@H]2CCCNc3cccc(n3)S(=O)(=O)NC(=O)c3ccc(-n4ccc(OCC5C6(CC6)C56CC6)n4)nc3N1C2` (single isomer, unassigned) [Compound 106, 8-[3-({dispiro[2.0.2.1]heptan-7-yl}methoxy)-1H-pyrazol-1-yl]-12,12-dimethyl-2λ^6-thia-3,9,11,18,23-pentaazatetracyclo[17.3.1.111,14.05,10]tetracosa-1(22),5,7,9,19(23),20-hexaene-2,2,4-trione]: the half-maximal effective concentration (EC50) was less than 1000 nM and the “Max. Activity” value is given as “+++ (+++ is >60%)”.

As for `C[C@@H]1CC[C@H]2CN(c3nc(N4CCN(CCC(C)(C)C)C4=O)ccc3C(=O)NS(=O)(=O)c3cccc(n3)N1)C(C)(C)C2` (single isomer, unassigned) [Compound 218, 8-[3-(3,3-dimethylbutyl)-2-oxoimidazolidin-1-yl]-12,12,17-trimethyl-2λ^6-thia-3,9,11,18,23-pentaazatetracyclo[17.3.1.111,14.05,10]tetracosa-1(22),5,7,9,19(23),20-hexaene-2,2,4-trione], the EC50 is more than 3000 nM and the “Max. Activity” value is “+ (+ is <30%)”.

Consider `CC1(C)C[C@H]2CCCCn3ccc(n3)S(=O)(=O)NC(=O)c3ccc(-n4ccc(OCCCC5(C(F)(F)F)CC5)n4)nc3N1C2` (single isomer, unassigned) [Compound 276, 21,21-dimethyl-4-(3-{3-[1-(trifluoromethyl)cyclopropyl]propoxy}-1H-pyrazol-1-yl)-10λ^6-thia-1,3,9,14,23-pentaazatetracyclo[17.2.1.111,14.02,7]tricosa-2,4,6,11(23),12-pentaene-8,10,10-trione], for which the EC50 was less than 1000 nM and the “Max. Activity” value is “++ (++ is 30-60%)”.

As for `CC1(C)C[C@H]2CCNc3cccc(n3)S(=O)(=O)NC(=O)c3ccc(-n4ccc(OCCC(C5CC5)C5CC5)n4)nc3N1C2` (single isomer, unassigned) [Compound 251, 11-[3-(3,3-dicyclopropylpropoxy)-1H-pyrazol-1-yl]-7,7-dimethyl-17λ^6-thia-2,8,10,16,22-pentaazatetracyclo[16.3.1.15,8.09,14]tricosa-1(22),9,11,13,18,20-hexaene-15,17,17-trione], the half-maximal effective concentration (EC50) is less than 1000 nM and the “Max. Activity” value is “++ (++ is 30-60%)”.

With `CC1(C)C[C@H]2CCCn3ccc(n3)S(=O)(=O)NC(=O)c3ccc(N4CC[C@H](CCCC5(C(F)(F)F)CC5)C4=O)nc3N1C2` (single isomer, unassigned) [Compound 182, 20,20-dimethyl-4-(2-oxo-3-{3-[1-(trifluoromethyl)cyclopropyl]propyl}pyrrolidin-1-yl)-10λ^6-thia-1,3,9,14,22-pentaazatetracyclo[16.2.1.111,14.02,7]docosa-2,4,6,11(22),12-pentaene-8,10,10-trione], the EC50 was less than 1000 nM and the “Max. Activity” value was “++ (++ is 30-60%)”.

Take `CC1(C)C[C@H]2CCCNc3cccc(n3)S(=O)(=O)NC(=O)c3ccc(-n4ccc(OCCC(C5CC5)C5CC5)n4)nc3N1C2` [Compound 65, (14R)-8-[3-(3,3-dicyclopropylpropoxy)-1H-pyrazol-1-yl]-12,12-dimethyl-2λ^6-thia-3,9,11,18,23-pentaazatetracyclo[17.3.1.111,14.05,10]tetracosa-1(22),5,7,9,19(23),20-hexaene-2,2,4-trione]: the EC50 was less than 1000 nM and the “Max. Activity” value is “++ (++ is 30-60%)”.

`CC1(C)C[C@H]2CCCCNc3ccc(cn3)S(=O)(=O)NC(=O)c3ccc(-n4ccc(OCCC5(C(F)(F)F)CC5)n4)nc3N1C2` (single isomer, unassigned) [Compound 67, 12,12-dimethyl-8-(3-{2-[1-(trifluoromethyl)cyclopropyl]ethoxy}-1H-pyrazol-1-yl)-2λ^6-thia-3,9,11,19,21-pentaazatetracyclo[18.2.2.111,14.05,10]pentacosa-1(23),5,7,9,20(24),21-hexaene-2,2,4-trione]: the EC50 was less than 1000 nM and the “Max. Activity” value was “+++ (+++ is >60%)”.

As to `CC1(C)C[C@H]2C[C@@H](F)CNc3cccc(n3)S(=O)(=O)NC(=O)c3ccc(-n4ccc(OCCC5C6(CC6)C56CC6)n4)nc3N1C2` (single isomer, unassigned) [Compound 307, 8-[3-(2-{dispiro[2.0.2.1]heptan-7-yl}ethoxy)-1H-pyrazol-1-yl]-16-fluoro-12,12-dimethyl-2λ^6-thia-3,9,11,18,23-pentaazatetracyclo[17.3.1.111,14.05,10]tetracosa-1(22),5,7,9,19(23),20-hexaene-2,2,4-trione], the EC50 was more than 3000 nM and the “Max. Activity” value is listed as “+ (+ is <30%)”.

`C[C@@H]1CC[C@H]2CN(c3nc(N4CCN(CCC(C)(C)C)C4=O)ccc3C(=O)NS(=O)(=O)c3cccc(n3)N1)C(C)(C)C2` (single isomer, unassigned) [Compound 215, 8-[3-(3,3-dimethylbutyl)-2-oxoimidazolidin-1-yl]-12,12,17-trimethyl-2λ^6-thia-3,9,11,18,23-pentaazatetracyclo[17.3.1.111,14.05,10]tetracosa-1(22),5,7,9,19(23),20-hexaene-2,2,4-trione]: the EC50 was more than 3000 nM and the “Max. Activity” value is reported as “+ (+ is <30%)”.

Turning to `CC1(C)C[C@H]2CCCOc3cccc(n3)S(=O)(=O)NC(=O)c3ccc(-n4ccc(OCCC5(C(F)(F)F)CC5)n4)nc3N1C2` (single isomer, unassigned) [Compound 49, 12,12-dimethyl-8-(3-{2-[1-(trifluoromethyl)cyclopropyl]ethoxy}-1H-pyrazol-1-yl)-18-oxa-2λ^6-thia-3,9,11,23-tetraazatetracyclo[17.3.1.111,14.05,10]tetracosa-1(22),5,7,9,19(23),20-hexaene-2,2,4-trione], the EC50 is less than 1000 nM and the “Max. Activity” value is listed as “+++ (+++ is >60%)”.

`CC(C)(C)CCO[C@H]1CCN(c2ccc3c(n2)N2C[C@@H](CCCNc4cccc(n4)S(=O)(=O)NC3=O)CC2(C)C)C1=O` (single isomer, unassigned) [Compound 171]: the EC50 is less than 1000 nM and the “Max. Activity” value is recorded as “+++ (+++ is >60%)”.

Regarding `CC(C)(C)CCN1CCN(c2ccc3c(n2)N2C[C@@H](CCCNc4cccc(n4)S(=O)(=O)NC3=O)CC2(C)C)C1=O` [Compound 128, (14S)-8-[3-(3,3-dimethylbutyl)-2-oxoimidazolidin-1-yl]-12,12-dimethyl-2λ^6-thia-3,9,11,18,23-pentaazatetracyclo[17.3.1.111,14.05,10]tetracosa-1(22),5,7,9,19(23),20-hexaene-2,2,4-trione], the EC50 is less than 1000 nM and the “Max. Activity” value is “+++ (+++ is >60%)”.
